Measured values from the Kinase Knowledgebase extract (Sharma et al. 2016).

Target: CDK2 (UniProt P24941)
Assay: Enzyme Assay
Settings: concentration not given here

inhibition, 100%:
Cc1csc(NC(=O)Cc2c[nH]c3ccc(O)cc23)c1C(N)=O
NC(=O)c1cc(-c2ccccc2)sc1NC(=O)c1ccc2cc[nH]c2c1
NC(=O)c1cc(Cc2ccccc2)sc1NC(=O)COc1ccc(O)cc1
CN1CCc2c(sc(NC(=O)CCN3C(=O)c4ccccc4C3=O)c2C(N)=O)C1
NC(=O)c1cc(Cc2ccccc2)sc1NC(=O)c1c[nH]cn1
CC(=O)CC(=O)N(CC(N)=O)c1sc(-c2ccccc2)cc1C(N)=O
Cc1sc(NC(=O)c2ccccc2-n2cccc2)c(C(N)=O)c1C
COc1cc(OC)c(C(=O)Nc2sc3c(c2C(N)=O)CCN(C)C3)c(OC)c1
CC(c1ccccc1)c1cc(C(N)=O)c(NC(=O)C(c2ccccc2)C(C)C)s1 (stereo not drawn)
COc1cc(C(=O)Nc2sc(Cc3ccccc3)cc2C(N)=O)ccc1C
Cc1csc(NC(=O)c2ccc(S(C)(=O)=O)cc2)c1C(N)=O
Cc1sc(NC(=O)Cc2c[nH]c3ccccc23)c(C(N)=O)c1C
CCC(N)C(=O)N(C(N)=O)c1sc(C(C)C)cc1C(N)=O (stereo not drawn)
CC(=O)N(CC(N)=O)c1sc2c(c1C(N)=O)CCCC2
COc1ccccc1C(=O)Nc1sc(-c2ccccc2)cc1C(N)=O
CC(=O)NC(Cc1c[nH]cn1)C(=O)Nc1sc2c(c1C(N)=O)CCN(C)C2 (stereo not drawn)
COc1cccc(C(=O)Nc2sc(Cc3ccccc3)cc2C(N)=O)c1O
CC(C)c1cc(C(N)=O)c(NC(=O)C2CC3C=CC2C3)s1 (stereo not drawn)
COc1cc(C(=O)Nc2sc3c(c2C(N)=O)CCN(C)C3)cc(OC)c1OC
COc1ccc(C)c(C(=O)Nc2sc(Cc3ccccc3)cc2C(N)=O)c1
Cc1csc(NC(=O)c2cccc(S(C)(=O)=O)c2)c1C(N)=O
Cc1ccc(CC(=O)Nc2sc(C(C)C)cc2C(N)=O)cc1
COc1cccc(O)c1C(=O)Nc1sc(Cc2ccccc2)cc1C(N)=O
CC(c1ccccc1)c1cc(C(N)=O)c(NC(=O)c2cn(C)c3ccccc23)s1 (stereo not drawn)
CC(C)c1cc(C(N)=O)c(NC(=O)CCC(=O)N(C)C)s1
CC(C)c1cc(C(N)=O)c(NC(=O)CCNC(N)=O)s1
CC(c1ccccc1)c1cc(C(N)=O)c(NC(=O)c2cccc3ccccc23)s1 (stereo not drawn)
Cc1cnc(C(=O)Nc2sc(C(C)C)cc2C(N)=O)cn1
CC(=O)NC(=O)C(C)Nc1sc(C(C)C)cc1C(N)=O (stereo not drawn)
CC(c1ccccc1)c1cc(C(N)=O)c(NC(=O)CCC(=O)c2ccccc2)s1 (stereo not drawn)
Cc1ccccc1C(=O)Nc1sc2c(c1C(N)=O)CCCC2
CC(=O)Nc1sc2c(c1C(N)=O)CCCC2
CN1CCc2c(sc(NC(=O)C(Cc3ccccc3)NC(=O)c3ccccc3)c2C(N)=O)C1 (stereo not drawn)
Cc1cccc(C(=O)Nc2sc3c(c2C(N)=O)CCCC3)c1
Cc1cc(C(=O)Nc2sc3c(c2C(N)=O)CCCC3)no1
NC(=O)c1cc(Cc2ccccc2)sc1NC(=O)c1cccc2[nH]ccc12
CN1CCc2c(sc(NC(=O)Cc3ccc(I)cc3)c2C(N)=O)C1
NC(=O)c1cc(Cc2ccccc2)sc1NC(=O)c1n[nH]c2ccccc12
Cc1cc(C)cc(C(=O)Nc2sc(C(C)C)cc2C(N)=O)c1
CC(c1ccccc1)c1cc(C(N)=O)c(NC(=O)c2ccc3ccccc3n2)s1 (stereo not drawn)
Cc1csc(NC(=O)CCn2ccc3ccccc32)c1C(N)=O
CNC(=O)CN(C(=O)c1ccccc1)c1scc(C)c1C(N)=O
CC(c1ccccc1)c1cc(C(N)=O)c(NC(=O)CNC(=O)c2ccccc2)s1 (stereo not drawn)
NC(=O)c1cc(Cc2ccccc2)sc1NC(=O)/C=C/c1ccccc1O
CC(=O)NC(=O)C1CCCN1c1sc(-c2ccccc2)cc1C(N)=O (stereo not drawn)
Cc1ccc(C(=O)Nc2sc3c(c2C(N)=O)CCCC3)cc1
NC(=O)c1c(NC(=O)C2(C(N)=O)CC2)sc2c1CCCC2
Cc1csc(NC(=O)c2cnn(-c3ccccc3)c2C)c1C(N)=O
Cc1csc(NC(=O)CCCCCN2C(=O)C=CC2=O)c1C(N)=O
COc1cccc(C(=O)Nc2sc(-c3ccccc3)cc2C(N)=O)c1
Cc1sc(NC(=O)c2ccc(OC(C)C)cc2)c(C(N)=O)c1C
Cc1csc(NC(=O)Cc2c(C)[nH]c3ccccc23)c1C(N)=O
CC(=O)NC(C(=O)Nc1scc(C)c1C(N)=O)c1ccccc1 (stereo not drawn)
CC1=C(C(=O)Nc2sc(C(C)c3ccccc3)cc2C(N)=O)Cc2ccccc21 (stereo not drawn)
NC(=O)c1c(NC(=O)c2cn[nH]c2)sc2c1CCCC2
Cc1nc2cc(C(=O)Nc3sc(C)c(C)c3C(N)=O)ccc2[nH]1
Cc1c(O)cccc1C(=O)Nc1sc(-c2ccccc2)cc1C(N)=O
Cc1cccc(NC(=O)c2ccccc2C(=O)Nc2sc3c(c2C(N)=O)CCN(C)C3)c1
CN(C)c1ccc(C(=O)Nc2sc(Cc3ccccc3)cc2C(N)=O)cc1
COc1ccc(C(=O)Nc2sc(C)c(C)c2C(N)=O)cc1OC
CC(=O)c1ccc(C(=O)Nc2sc(Cc3ccccc3)cc2C(N)=O)cc1
CC(C)c1cc(C(N)=O)c(NC(=O)c2ccccc2F)s1
Cc1csc(NC(=O)CNC(=O)c2ccccc2O)c1C(N)=O
CC(c1ccccc1)c1cc(C(N)=O)c(NC(=O)c2cc3ccccc3n2C)s1 (stereo not drawn)
Cc1sc(NC(=O)c2cc3cc(O)ccc3[nH]2)c(C(N)=O)c1C
Cc1noc(C)c1C(=O)Nc1sc(C(C)C)cc1C(N)=O
CCC(=O)C(=O)Nc1sc2c(c1C(N)=O)CCCC2
Cc1csc(NC(=O)CCc2nc3ccccc3[nH]2)c1C(N)=O
Cc1sc(NC(=O)c2ccc(Cl)c(Cl)c2)c(C(N)=O)c1C
NC(=O)c1cc(-c2ccccc2)sc1NC(=O)Cc1cccc(O)c1
NC(=O)c1c(NC(=O)c2c[nH]nc2N)sc2c1CCCC2
COc1ccc(OC)c(/C=C\C(=O)Nc2scc(C)c2C(N)=O)c1
COc1ccc(/C=C\C(=O)Nc2scc(C)c2C(N)=O)cc1OC
Cc1ccc(C(=O)Nc2sc(-c3ccccc3)cc2C(N)=O)c(O)c1
CC(=O)N[C@@H](CC(N)=O)C(=O)Nc1sc(C(C)c2ccccc2)cc1C(N)=O (stereo partly drawn)
Cc1ccc(C(=O)Nc2sc(C(C)C)cc2C(N)=O)c(C)c1
Cc1sc(NC(=O)/C=C/CNC2=CCC(=O)C=C2)c(C(N)=O)c1C
Cc1sc(NC(=O)c2coc3ccccc3c2=O)c(C(N)=O)c1C
CC(c1ccccc1)c1cc(C(N)=O)c(NC(=O)C2=CN(C)CCC2)s1 (stereo not drawn)
CC(C)c1cc(C(N)=O)c(NC(=O)c2ccc(O)cc2)s1
CN(C)c1cccc(C(=O)Nc2sc(Cc3ccccc3)cc2C(N)=O)c1
CC(c1ccccc1)c1cc(C(N)=O)c(NC(=O)c2ccc(Cl)cc2O)s1 (stereo not drawn)
CC(c1ccccc1)c1cc(C(N)=O)c(NC(=O)c2ccc3ncccc3c2)s1 (stereo not drawn)
CC(c1ccccc1)c1cc(C(N)=O)c(NC(=O)c2cnc3ccccc3c2)s1 (stereo not drawn)
NC(=O)c1cc(-c2ccccc2)sc1NC(=O)c1ccc(Cl)cc1
CC(c1ccccc1)c1cc(C(N)=O)c(NC(=O)c2ccc3ccccc3c2)s1 (stereo not drawn)
CN1CCc2c(sc(NC(=O)c3ccc(-c4ccc(Cl)cc4)o3)c2C(N)=O)C1
C#CC(=O)N(c1ccccc1)c1sc(C(C)C)cc1C(N)=O
NC(=O)c1c(NC(=O)c2cc[nH]c2)sc2c1CCCC2
COc1cc(OC)cc(C(=O)Nc2sc(C)c(C)c2C(N)=O)c1
Cc1csc(NC(=O)Cc2csc3ccccc23)c1C(N)=O
CC(C)c1cc(C(N)=O)c(NC(=O)C2CNC(=O)N2)s1 (stereo not drawn)
NC(=O)c1ccccc1C(=O)Nc1sc(Cc2ccccc2)cc1C(N)=O
Cc1sc(NC(=O)c2ccccc2C(F)(F)F)c(C(N)=O)c1C
CC(=O)NC(=O)C(Nc1sc(-c2ccccc2)cc1C(N)=O)C(C)C (stereo not drawn)
CC(=O)N(C#N)c1sc2c(c1C(N)=O)CCCC2
C=CCN(C(C)=O)C(=O)CNc1sc(-c2ccccc2)cc1C(N)=O
CC(C)c1cc(C(N)=O)c(NC(=O)CCc2cccnc2)s1
